According to patent publication US20250099474A1 (priority 2022, published 2025):

How the values were obtained:
SARS-CoV-2 [1] = test: Phase 2/3 study, Phase 2a Part: SARS-CoV-2 virus titer; type: in vivo, human; conditions: for Change from baseline in SARS-CoV-2 virus titer compared to placebo group: mITT, significance level 0.05
Experimental: The primary endpoint of Phase 2a Part was the change from baseline in SARS-CoV-2 virus titer at each time point in common among mild/moderate and asymptomatic SARS-CoV-2-infected patients, and the antiviral effect of the active drug was confirmed.
The administration of the active drug is repeated oral administration once a day for 5 days. The 375/125 mg group received 375 mg on Day 1 as a loading dose and 125 mg on Days 2 to 5 as a maintenance dose. The 750/250 mg group received 750 mg on Day 1 as a loading dose and 250 mg on Days 2 to 5 as a maintenance dose.
The primary efficacy endpoint of Phase 2a Part was the change from baseline in SARS-CoV-2 virus titer at each time point in common among mild/moderate and asymptomatic SARS-CoV-2-infected patients. It was defined as an absolute change from baseline in observed value of SARS-CoV-2 virus titer at each time point.
For each population of the mild/moderate SARS-CoV-2-infected patients, the asymptomatic SARS-CoV-2-infected patients, and the merged population thereof, summary statistics of the change from baseline in SARS-CoV-2 virus titer at each time point were calculated for the mITT population. Furthermore, a van Elteren test was applied to a combined population of mild/moderate and asymptomatic SARS-CoV-2-infected patients. Pairwise comparisons were made between each active drug dose group and the placebo group for SARS-CoV-2 virus titer at each time point at a two-sided significance level of 5%. The population of the mild/moderate SARS-CoV-2-infected patients and the population of the asymptomatic SARS-CoV-2-infected patients were used as strata in the van Elteren test.
In addition, when the virus titer was less than the lower detection limit (0.8 log10 (TCID50/mL)), the value of the virus titer was handled as 0.8 log10 (TCID50/mL). […] In the RT-PCR measurement results and the virus titer measurement results that were available by the time point of Jan.

SARS-CoV-2 [2] = test: Phase 2/3 study, Phase 2a Part: COVID-19 symptom score and exacerbation (Ordinal scale); type: in vivo, human; conditions: mild/moderate patients
Experimental: The 750/250 mg group received 750 mg on Day 1 as a loading dose and 250 mg on Days 2 to 5 as a maintenance dose.

SARS-CoV-2 [3] = conditions: mouse, in vivo

SMILES: Cn1cnc(Cn2c(=O)[nH]/c(=N\c3cc4cn(C)nc4cc3Cl)n(Cc3cc(F)c(F)cc3F)c2=O)n1 [(6E)-6-[(6-chloro-2-methyl-2H-indazol-5-yl)imino]-3-[(1-methyl-1H-1,2,4-triazol-3-yl)methyl]-1-[(2,4,5-trifluorophenyl)methyl]-1,3,5-triazinane-2,4-dione]
- Decrease of proportion of patients with a positive virus titer of 0.8 or more, with respect to placebo group (SARS-CoV-2 [1]; Day 4, 375/125 mg group): 63%
- Decrease of proportion of patients with a positive virus titer of 0.8 or more, with respect to placebo group (SARS-CoV-2 [1]; Day 4, 750/250 mg group): 80%
- Decrease of proportion of patients with a positive virus titer of 0.8 or more, with respect to placebo group (SARS-CoV-2 [1]; Day 6, 375/125 mg group): 100%
- Decrease of proportion of patients with a positive virus titer of 0.8 or more, with respect to placebo group (SARS-CoV-2 [1]; Day 6, 750/250 mg group): 54%
- Change from baseline in SARS-CoV-2 virus titer compared to placebo group (SARS-CoV-2 [1]; 375/125 mg group, Visit 3 (Day 4)): statistically significantly decreased
- Change from baseline in SARS-CoV-2 virus titer compared to placebo group (SARS-CoV-2 [1]; 750/250 mg group, Visit 2 (Day 2) and Visit 3 (Day 4)): statistically significantly decreased
- SARS-CoV-2 virus titer compared to placebo group (SARS-CoV-2 [1]; results available by Jan. 17, 2022, 375/125 mg group, all time points after Visit 3 (Day 4)): tendency for the virus titer to decrease
- SARS-CoV-2 virus titer compared to placebo group (SARS-CoV-2 [1]; results available by Jan. 17, 2022, 750/250 mg group, all time points after Visit 2 (Day 2)): tendency for the virus titer to decrease
- Exacerbation rate (Ordinal scale deteriorated to 3 or more for the first time) (SARS-CoV-2 [2]; 375/125 mg group): 0.0%
- Number of exacerbations/number of cases to be analyzed (SARS-CoV-2 [2]; 375/125 mg group): 0/13
- Change from baseline in total score of 12 COVID-19 symptoms compared to placebo group (SARS-CoV-2 [2]; 375/125 mg group and 750/250 mg group, all time points on Day 2 and thereafter, FIG. 6): tendency for the total score of the twelve COVID-19 symptoms to numerically improve
- Exacerbation rate (Ordinal scale deteriorated to 3 or more for the first time) (SARS-CoV-2 [2]; 750/250 mg group): 0.0%
- Number of exacerbations/number of cases to be analyzed (SARS-CoV-2 [2]; 750/250 mg group): 0/12
- maximum plasma concentration (Cmax) in humans that reduces the virus titer by 2 log (SARS-CoV-2 [3]): 14.1 μg/mL
- maximum plasma concentration (Cmax) in humans that reduces the virus titer by 3 log (SARS-CoV-2 [3]): 23.0 μg/mL
